According to patent US20070093410A1, “Selective inhibition of proteasomes of tuberculosis and other bacteria” (President and Fellows of Harvard College, priority 2004, published 2007):
Non-standard residues stand in square brackets, D forms with d. Residues, ends and D or L forms follow the SMILES beside them. No end group written: not given here. *: point of attachment. Biotin = O=C1N[C@H]2[C@H](CS[C@H]2CCCCC(=O)*)N1; Nle = CCCC[C@H](N)C(=O)O; Cbz = O=C(OCc1ccccc1)*

Tests used:
[1] = test system: SDS-activated 20S mammalian proteasomes; assay: Inhibition of individual active sites of SDS-activated 20S mammalian proteasomes, fluorogenic substrates specific for each active site; assay type: biochemical, rabbit; conditions: sites other than the one the inhibitor is specific for; FIG. 1C
Protocol: (§1) FIGS. 1A-1D depict hydrolysis of bKKQ10KK (SEQ ID NO:5) by the trypsin-like active site of the eukaryotic proteasome. A) 80 μM bKKQ10KK (SEQ ID NO:5) was incubated with mammalian (rabbit) 20S proteasomes with or without PA28αβ, 0.02% SDS. B) 35 μM bKKQ10KK (SEQ ID NO:5) was incubated with yeast wild type and ‘open-gate’ (α3ΔN) proteasomes. C) Mammalian 20S proteasomes were treated with inhibitors specific to each active site. D) After inactivation, the proteasomes were further incubated with bKKQ10KK (SEQ ID NO:5).
(§2) To identify which active site of the proteasome cleaved after bKKQ, inhibitors that selectively block the individual active sites were used. SDS-activated 20S mammalian proteasomes were treated with the irreversible inhibitors, 4-hydroxy-5-iodo-3-nitrophenylacetyl-Leu-Leu-vinyl sulfone (NLVS); (Bogyo et al., supra, incorporated herein by reference in its entirety for all purposes), which is specific for the chymotrypsin-like site; Acetyl-Tyr-Arg-Leu-Asn-vinyl sulfone (SEQ ID NO:20) (Ac-YRLN-VS), which reacts primarily with the trypsin-like site (Nazif et al. (2001) Proc. Natl. Acad. Sci. USA 98:2967, incorporated herein by reference in its entirety for all purposes); or with the reversible inhibitor of the caspase-like site, Z-Pro-norLeu-Asp-aldehyde (Z-PnLD-CHO) (Kisselev et al. (2003) supra, incorporated herein by reference in its entirety for all purposes). The extent of inhibition of the different sites was assayed using fluorogenic substrates specific for each active site. […] After inactivation of each type of active site, the proteasomes were incubated with bKKQ10KK. […] Thus, cleavage after bKKQ was due to the activity of the trypsin-like site, presumably because of the two-lysine residues preceding the initial Q residue.

[2] = test system: SDS-activated 20S mammalian proteasomes; assay: bKKQ10KK cleavage by 20S mammalian proteasomes after inactivation of each type of active site; assay type: biochemical, rabbit; conditions: proteasomes pre-treated with inhibitor, then incubated with bKKQ10KK; FIG. 1D
Protocol: as §1, §2
For 20S proteasomes, 20 mM Hepes (pH 7.5) containing 1 mM dithiothreitol (DTT) was used. For reactions with 26S proteasomes, the buffer also contained 0.5 mM ATP and 2.5 mM MgCl2. All reactions were performed at 37° C. […] The reaction was terminated with 0.4 ml of ice-cold water and fluorescence read at 380 nm excitation and 470 nm emission. […]

[3] = test system: T1, Acetyl-Tyr-Arg-Leu-Asn-vinyl sulfone (SEQ ID NO:20)
T1 sequence: YRLN

[4] = test system: bovine PA 28alpha-beta (Boston Biochem, Inc.)
bKKQ10KK (SEQ ID NO:8) = test system: T2, bKKQ10KK (SEQ ID NO:8)
T2 sequence: KKQQQQQQQQQQKK

bKKQ20KK (SEQ ID NO:9) = test system: T3, bKKQ20KK (SEQ ID NO:9)
T3 sequence: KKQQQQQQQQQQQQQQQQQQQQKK

rabbit 26S proteasomes = assay: Peptide cleavage by 26S proteasomes (new amino groups, fluorescamine assay); assay type: biochemical; conditions: 35 μM peptide, FIG. 2
Protocol: FIG. 2 graphically depicts rapid cleavage of the flanking RRGRR (SEQ ID NO:6) in Q20RRGRR (SEQ ID NO:7) by eukaryotic proteasomes. 35 μM of each of the following peptides bKKQ10KK (SEQ ID NO:8), bKKQ20KK (SEQ ID NO:9), N-extended-KK-Q20-KK (SEQ ID NO:10), Q20RRGRR (SEQ ID NO:7) and a control 20-mer peptide […] (SEQ ID NO:12), lacking any repeat sequence were incubated with 7.2 μg of rabbit 26S particles in a total volume of 40 μl. New amino groups formed were assayed.
Although 26S proteasomes cleaved these polyQ peptides slowly and only after the initial Q residues, they cleaved a Q20 (SEQ ID NO: 30) sequence with RRGRR (SEQ ID NO:6) at its C-terminus 5 to 6-fold faster than other polyQ peptides (FIG. 2) studied and at similar rates to the 20-mer control peptide (though not as fast as YGGFLRRIRPKLK (SEQ ID NO:29), a 13-mer which is cleaved at least 2 times faster).
For 20S proteasomes, 20 mM Hepes (pH 7.5) containing 1 mM dithiothreitol (DTT) was used. For reactions with 26S proteasomes, the buffer also contained 0.5 mM ATP and 2.5 mM MgCl2. All reactions were performed at 37° C. 5 μl aliquots were withdrawn at different times, 50 μl of 0.2M sodium phosphate (pH 6.8) was added and then mixed vigorously with 50 μl fluorescamine for 3 minutes. The reaction was terminated with 0.4 ml of ice-cold water and fluorescence read at 380 nm excitation and 470 nm emission.

[5] = target: T4, archaebacterial 'open-gate' 20S proteasomes (Thermoplasma acidophilum, UniProt P28061); assay: Cleavage of polyQ peptides by archaebacterial 'open-gate' (Δ7α) 20S proteasomes; assay type: biochemical; conditions: half the concentration of the yeast particles, 37° C.
T4 sequence (P28061 9-211): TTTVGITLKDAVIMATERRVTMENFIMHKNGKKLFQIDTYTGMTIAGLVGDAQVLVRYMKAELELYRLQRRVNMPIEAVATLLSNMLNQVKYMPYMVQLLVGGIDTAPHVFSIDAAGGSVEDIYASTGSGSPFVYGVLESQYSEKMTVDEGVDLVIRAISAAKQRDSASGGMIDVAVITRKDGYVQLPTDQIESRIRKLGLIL
Protocol: (§3) FIGS. 4A-4B depict multiple cleavages within the polyQ sequence by archaebacterial proteasomes. A) bKKQ20KK (SEQ ID NO:9) (25 μM) was incubated with 0.6 μg of yeast or 250 ng of archaebacterial ‘open-gate’ 20S particles in a total volume of 50 μl. B) Products generated by the archaebacterial proteasomes were analyzed by MALDI-TOF.
(§4) 20S proteasomes of archaebacteria, e.g., Thermoplasma acidophilum, contain 14 identical active sites, which, though originally classified as “chymotrypsin-like” (Dahlmann et al. (1991) Biomed. Biochim. Acta 50:465, incorporated herein by reference in its entirety for all purposes), were later shown to cleave also after basic and acidic residues (Akopian et al., supra). These “less-specific” active sites were tested to determine if they could degrade within a polyQ sequence. […] It was determined that mutant archaebacterial proteasomes lacking this gate (Δ7α) (Benaroudj et al., supra, incorporated herein by reference in its entirety for all purposes) cleaved polyQ peptides and control peptides at least 17 fold faster than the wild-type particles. […]
(§5) For 20S proteasomes, 20 mM Hepes (pH 7.5) containing 1 mM dithiothreitol (DTT) was used. […] The reaction was terminated with 0.4 ml of ice-cold water and fluorescence read at 380 nm excitation and 470 nm emission.

eukaryotic proteasomes = assay: Competitive inhibition of hydrolysis of standard fluorogenic substrates by eukaryotic proteasomes; assay type: biochemical
From the text: In contrast to eukaryotic proteasomes, the ancestral particles from the archaebacterium T. acidophilum digested polyQ peptides very rapidly and degraded completely the myoglobin-polyQ fusion protein. Unlike the eukaryotic homologs, these prokaryotic proteasomes contain 14 identical active sites of broad specificity. […] The data presented herein indicate that the trypsin-like sites can cleave after a P1 glutamine if the preceding residue at P2 is a lysine and at P3 a αN-blocked lysine. […] Thus, their failure to degrade polyQ-sequences is due to the inability of their active sites to bind the polyQ repeat, not to the proteasome's unique catalytic mechanism, which is similar in eukaryotic and archaebacterial particles.

yeast 20S proteasomes = assay: Hydrolysis of bKKQ10KK by yeast wild type and 'open-gate' (α3ΔN) 20S proteasomes; assay type: biochemical; conditions: 35 μM bKKQ10KK; FIG. 1B
Protocol: as §1
To test whether 20S proteasomes could cleave within a polyQ sequence, a peptide containing 10 Q-residues flanked at each end by two lysine residues to enhance solubility (bKKQ10KK) (SEQ ID NO:8) and biotin on the α amino group was initially used as a substrate. […] Similarly, a mutant form (α3ΔN) of the yeast proteasome with an N-terminal deletion in the α3 subunit, which causes ‘gate-opening’, hydrolyzed bKKQ10KK (SEQ ID NO:8), approximately ten-fold faster than the wild-type (FIG. 1B). Thus, entry of this peptide and its cleavage depends on the presence of an ‘open-gate’ in the α-ring. […]
as §5

[6] = target: T4, archaebacterial 'open-gate' 20S proteasomes; assay: Hydrolysis of bKKQ20KK by archaebacterial 'open-gate' 20S proteasomes, effect of proteasome inhibitor; assay type: biochemical; conditions: 37° C.
Protocol: as §3, §4, §5

CCCC[C@H](NC(=O)[C@@H]1CCCN1C(=O)OCc1ccccc1)C(=O)N[C@H](C=O)CC(=O)O [Z-PnLD-CHO, Z-Pro-norLeu-Asp-aldehyde] (Cbz-Pro-[Nle]-Asp-aldehyde)
effect on the other two peptidase activities [1]: without significantly affecting the other two
reduction of bKKQ10KK cleavage [2]: no significant effect

rabbit 20S proteasomes
decrease in the individual peptidase activities (fluorogenic substrates specific for each active site) [3]: Each inhibitor caused an 85%-95% decrease in the individual peptidase activities without significantly affecting the other two
reduction of bKKQ10KK cleavage [3]: Treatment with Ac-YRLN-VS (SEQ ID NO:20) reduced bKKQ10KK (SEQ ID NO:8) cleavage by about 70%
hydrolysis of bKKQ10KK and of standard fluorogenic peptide substrates [4]: Rabbit 20S proteasomes, when purified in their latent state, were inactive against bKKQ10KK (SEQ ID NO:8) (FIG. 1A) or against standard fluorogenic peptide substrates, unless PA28αβ, or 0.02% SDS was added

archaebacterial 'open-gate' 20S proteasomes (delta7alpha) of Thermoplasma acidophilum
rate of peptide cleavage against yeast 'open-gate' 20S proteasomes, 37° C. (bKKQ10KK (SEQ ID NO:8)): cleaved both bKKQ10KK (SEQ ID NO:8) and bKKQ20KK (SEQ ID NO:9) at least 70 times faster than the yeast ‘open-gate’ 20S proteasomes
rate of peptide cleavage against yeast 'open-gate' 20S proteasomes, 37° C. (bKKQ20KK (SEQ ID NO:9)): cleaved both bKKQ10KK (SEQ ID NO:8) and bKKQ20KK (SEQ ID NO:9) at least 70 times faster than the yeast ‘open-gate’ 20S proteasomes

Q20RRGRR: Q20 sequence with RRGRR at its C-terminus (SEQ ID NO:7) (QQQQQQQQQQQQQQQQQQQQRRGRR; Peptide generated by solid-phase peptide synthesis)
cleavage rate relative to other polyQ peptides (rabbit 26S proteasomes): 5 to 6 fold

Acetyl-Tyr-Arg-Leu-Asn-vinyl sulfone (Ac-YRLN-{vinyl sulfone}) [Ac-YRLN-VS]
effect on the other two peptidase activities [1]: without significantly affecting the other two
reduction of bKKQ10KK cleavage [2]: about 70%

bKKQ20KK: Q20 sequence flanked by two lysine residues on each end and biotin on the α amino group (SEQ ID NO:9) (Biotin-KKQQQQQQQQQQQQQQQQQQQQKK)
time to complete consumption of the peptide [5]: ≤ 45 min

bKKQ10KK: peptide containing 10 Q-residues flanked at each end by two lysine residues, biotin on the α amino group (SEQ ID NO:8) (Biotin-KKQQQQQQQQQQKK)
competitive inhibition of hydrolysis of standard fluorogenic substrates (eukaryotic proteasomes): could not competitively inhibit
hydrolysis rate by α3ΔN mutant relative to wild-type yeast proteasome (yeast 20S proteasomes): approximately ten-fold

CC(C)C[C@@H](C=O)NC(=O)[C@H](CC(C)C)NC(=O)[C@H](CC(C)C)NC(=O)OCc1ccccc1 [MG132] (Cbz-Leu-Leu-Leu-aldehyde)
inhibition of bKKQ20KK hydrolysis [6]: inhibited this process

4-hydroxy-5-iodo-3-nitrophenylacetyl-Leu-Leu-vinyl sulfone [NLVS]
effect on the other two peptidase activities [1]: without significantly affecting the other two
reduction of bKKQ10KK cleavage [2]: no significant effect
